# Data reported in PubChem BioAssay AID1963872 (Molecular Pharmacology Branch, DTP, NCI, 2024).
# Tested on: KRAS patient-derived spheroids with HUVEC/MSC, viability
# Experiment: Anticancer human tumor 519858-162-T-J1-PDC patient-derived colon adenocarcinoma cell line growth inhibition [KRAS2]
# Conditions: for viability, T/C: stronger effect = lower value
# In short: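 KRAS-mutant tumor cells were grown as spheroids with HUVEC endothelial cells and human MSCs as stroma. Targeted agents were tested alone and with KRAS pathway inhibitors. Doses started at or near clinical Cmax, or 10 microM, descending half-log.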
# [1] = curve of first compound, second compound 0.1 µM
# [2] = curve of first compound, second compound 0.316 µM
# [3] = curve of first compound, second compound 1 µM
# [4] = curve of first compound, second compound 3.16 µM
# [5] = second compound 0.1 µM, first compound 0.0316 µM
# [6] = second compound 0.1 µM, first compound 0.1 µM
# [7] = second compound 0.1 µM, first compound 0.316 µM
# [8] = second compound 0.1 µM, first compound 1 µM
# [9] = second compound 0.1 µM, first compound 3.16 µM
# [10] = second compound 0.1 µM, first compound 10 µM
# [11] = second compound 0.316 µM, first compound 0.0316 µM
# [12] = second compound 0.316 µM, first compound 0.1 µM
# [13] = second compound 0.316 µM, first compound 0.316 µM
# [14] = second compound 0.316 µM, first compound 1 µM
# [15] = second compound 0.316 µM, first compound 3.16 µM
# [16] = second compound 0.316 µM, first compound 10 µM
# [17] = second compound 1 µM, first compound 0.0316 µM
# [18] = second compound 1 µM, first compound 0.1 µM
# [19] = second compound 1 µM, first compound 0.316 µM
# [20] = second compound 1 µM, first compound 1 µM
# [21] = second compound 1 µM, first compound 3.16 µM
# [22] = second compound 1 µM, first compound 10 µM
# [23] = second compound 3.16 µM, first compound 0.0316 µM
# [24] = second compound 3.16 µM, first compound 0.1 µM
# [25] = second compound 3.16 µM, first compound 0.316 µM
# [26] = second compound 3.16 µM, first compound 1 µM
# [27] = second compound 3.16 µM, first compound 3.16 µM
# [28] = second compound 3.16 µM, first compound 10 µM
# [29] = curve of first compound, second compound 10 µM
# [30] = second compound 0.1 µM, first compound 0.01 µM
# [31] = second compound 0.316 µM, first compound 0.01 µM
# [32] = second compound 1 µM, first compound 0.01 µM
# [33] = second compound 3.16 µM, first compound 0.01 µM
# [34] = second compound 10 µM, first compound 0.01 µM
# [35] = second compound 10 µM, first compound 0.0316 µM
# [36] = second compound 10 µM, first compound 0.1 µM
# [37] = second compound 10 µM, first compound 0.316 µM
# [38] = second compound 10 µM, first compound 1 µM
# [39] = second compound 10 µM, first compound 3.16 µM
# 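Note: compound exposure lasted seven days before readout.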
# 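Throughout, for viability, T/C: 100% = DMSO vehicle control viability.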
smiles,measurement,setting,value
CCNC(=O)CC1N=C(c2ccc(Cl)cc2)c2cc(OC)ccc2-n2c(C)nnc21 (stereo unspecified) + C=CC(=O)N1CCN(c2nc(OCC3CCCN3C)nc3c2CCN(c2cccc4cccc(C)c24)C3)CC1CC#N,IC50,"curve of first compound, second compound 0.0316 µM",1530 nM
same,IC50,[1],1730 nM
same,IC50,[2],1330 nM
same,IC50,[3],1440 nM
same,IC50,[4],200 nM
same,"viability, T/C","second compound 0.0316 µM, first compound 0.0316 µM",90.5%
same,"viability, T/C","second compound 0.0316 µM, first compound 0.1 µM",76.3%
same,"viability, T/C","second compound 0.0316 µM, first compound 0.316 µM",92.1%
same,"viability, T/C","second compound 0.0316 µM, first compound 1 µM",57.6%
same,"viability, T/C","second compound 0.0316 µM, first compound 3.16 µM",42.6%
same,"viability, T/C","second compound 0.0316 µM, first compound 10 µM",31.6%
same,"viability, T/C",[5],85.5%
same,"viability, T/C",[6],93.8%
same,"viability, T/C",[7],79.7%
same,"viability, T/C",[8],59.2%
same,"viability, T/C",[9],40.4%
same,"viability, T/C",[10],27.2%
same,"viability, T/C",[11],101%
same,"viability, T/C",[12],88.3%
same,"viability, T/C",[13],66.4%
same,"viability, T/C",[14],54.1%
same,"viability, T/C",[15],40.4%
same,"viability, T/C",[16],22.9%
same,"viability, T/C",[17],89.3%
same,"viability, T/C",[18],74.6%
same,"viability, T/C",[19],70.4%
same,"viability, T/C",[20],58.2%
same,"viability, T/C",[21],35.8%
same,"viability, T/C",[22],20.6%
same,"viability, T/C",[23],69.9%
same,"viability, T/C",[24],55.2%
same,"viability, T/C",[25],46.9%
same,"viability, T/C",[26],33.2%
same,"viability, T/C",[27],29.6%
same,"viability, T/C",[28],18.4%
Cn1ncnc1[C@H]1c2n[nH]c(=O)c3cc(F)cc(c23)N[C@@H]1c1ccc(F)cc1 + COc1cc2nc(C)nc(NC(C)c3cc(N)cc(C(F)(F)F)c3)c2cc1OC1CCOC1,IC50,[1],> 100 nM
same,IC50,[2],> 100 nM
same,IC50,[3],> 100 nM
same,IC50,[4],> 100 nM
same,IC50,[29],> 100 nM
same,"viability, T/C","second compound 0.1 µM, first compound 0.000316 µM",71.8%
same,"viability, T/C","second compound 0.1 µM, first compound 0.001 µM",95.3%
same,"viability, T/C","second compound 0.1 µM, first compound 0.00316 µM",73.5%
same,"viability, T/C",[30],71.8%
same,"viability, T/C",[5],76.9%
same,"viability, T/C",[6],80.1%
same,"viability, T/C","second compound 0.316 µM, first compound 0.000316 µM",68.2%
same,"viability, T/C","second compound 0.316 µM, first compound 0.001 µM",68.7%
same,"viability, T/C","second compound 0.316 µM, first compound 0.00316 µM",59.2%
same,"viability, T/C",[31],74.9%
same,"viability, T/C",[11],77%
same,"viability, T/C",[12],74.5%
same,"viability, T/C","second compound 1 µM, first compound 0.000316 µM",74.7%
same,"viability, T/C","second compound 1 µM, first compound 0.001 µM",67.3%
same,"viability, T/C","second compound 1 µM, first compound 0.00316 µM",70.9%
same,"viability, T/C",[32],97.4%
same,"viability, T/C",[17],68%
same,"viability, T/C",[18],58%
same,"viability, T/C","second compound 3.16 µM, first compound 0.000316 µM",45.8%
same,"viability, T/C","second compound 3.16 µM, first compound 0.001 µM",60.3%
same,"viability, T/C","second compound 3.16 µM, first compound 0.00316 µM",45.7%
same,"viability, T/C",[33],69.8%
same,"viability, T/C",[23],47.8%
same,"viability, T/C",[24],70.6%
same,"viability, T/C","second compound 10 µM, first compound 0.000316 µM",49.7%
same,"viability, T/C","second compound 10 µM, first compound 0.001 µM",55.6%
same,"viability, T/C","second compound 10 µM, first compound 0.00316 µM",57.8%
same,"viability, T/C",[34],50.7%
same,"viability, T/C",[35],57.8%
same,"viability, T/C",[36],48.4%
CC(=O)OC12COC1CC(O)C1(C)C(=O)C(O)C3=C(C)C(OC(=O)C(O)C(NC(=O)OC(C)(C)C)c4ccccc4)CC(O)(C(OC(=O)c4ccccc4)C21)C3(C)C (stereo unspecified) + C=CC(=O)N1CCN(c2nc(=O)n(-c3c(C)ccnc3C(C)C)c3nc(-c4c(O)cccc4F)c(F)cc23)C(C)C1,IC50,[1],> 3160 nM
same,IC50,[2],> 3160 nM
same,IC50,[3],> 3160 nM
same,IC50,[4],> 3160 nM
same,IC50,[29],> 3160 nM
same,"viability, T/C",[30],121%
same,"viability, T/C",[5],80.8%
same,"viability, T/C",[6],98.2%
same,"viability, T/C",[7],89.6%
same,"viability, T/C",[8],72.3%
same,"viability, T/C",[9],62.1%
same,"viability, T/C",[31],84.7%
same,"viability, T/C",[11],68.9%
same,"viability, T/C",[12],84.3%
same,"viability, T/C",[13],93.1%
same,"viability, T/C",[14],77.5%
same,"viability, T/C",[15],64.7%
same,"viability, T/C",[32],62.8%
same,"viability, T/C",[17],80.2%
same,"viability, T/C",[18],90.5%
same,"viability, T/C",[19],83.5%
same,"viability, T/C",[20],74.1%
same,"viability, T/C",[21],67.8%
same,"viability, T/C",[33],54.7%
same,"viability, T/C",[23],74.6%
same,"viability, T/C",[24],70%
same,"viability, T/C",[25],103%
same,"viability, T/C",[26],69.7%
same,"viability, T/C",[27],75.8%
same,"viability, T/C",[34],62.1%
same,"viability, T/C",[35],79%
same,"viability, T/C",[36],84.5%
same,"viability, T/C",[37],68.5%
same,"viability, T/C",[38],64.8%
same,"viability, T/C",[39],69.3%
COc1cc2nccc(Oc3ccc(NC(=O)C4(C(=O)Nc5ccc(F)cc5)CC4)cc3)c2cc1OC + C=CC(=O)N1CCN(c2nc(=O)n(-c3c(C)ccnc3C(C)C)c3nc(-c4c(O)cccc4F)c(F)cc23)C(C)C1,IC50,[1],> 10000 nM
same,IC50,[2],> 10000 nM
same,IC50,[3],> 10000 nM
same,IC50,[4],> 10000 nM
same,IC50,[29],> 10000 nM
same,"viability, T/C",[5],77.8%
same,"viability, T/C",[6],91.2%
same,"viability, T/C",[7],93.5%
same,"viability, T/C",[8],93.6%
same,"viability, T/C",[9],71.8%
same,"viability, T/C",[10],185%
same,"viability, T/C",[11],97.1%
same,"viability, T/C",[12],99%
same,"viability, T/C",[13],92.3%
same,"viability, T/C",[14],86.6%
same,"viability, T/C",[15],84.8%
same,"viability, T/C",[16],135%
same,"viability, T/C",[17],91.5%
same,"viability, T/C",[18],87.7%
same,"viability, T/C",[19],91.7%
same,"viability, T/C",[20],98.7%
same,"viability, T/C",[21],105%
same,"viability, T/C",[22],134%
same,"viability, T/C",[23],88.2%
same,"viability, T/C",[24],73.3%
same,"viability, T/C",[25],69.8%
same,"viability, T/C",[26],81%
same,"viability, T/C",[27],74.2%
same,"viability, T/C",[28],109%
same,"viability, T/C",[35],94.7%
same,"viability, T/C",[36],89.5%
same,"viability, T/C",[37],75.6%
same,"viability, T/C",[38],68.2%
same,"viability, T/C",[39],61.9%
same,"viability, T/C","second compound 10 µM, first compound 10 µM",131%
CCN1CCN(Cc2ccc(Nc3ncc(F)c(-c4cc(F)c5nc(C)n(C(C)C)c5c4)n3)nc2)CC1,"viability, T/C",compound 0.00316 µM,87.7% [middle of 5 runs]
same,"viability, T/C",compound 0.01 µM,82.6% [middle of 5 runs]
same,"viability, T/C",compound 0.1 µM,79.7% [middle of 5 runs]
same,"viability, T/C",compound 0.316 µM,72.4% [middle of 5 runs]
same,"viability, T/C",compound 1 µM,44.8% [middle of 5 runs]
same,IC50,curve of compound,879 nM [middle of 5 runs]
